Measurements taken from patent US20070207992A1, “Geldanamycin derivatives and method of use thereof” (Board of Trustees of Michigan State University, priority 2006, published 2007).
Structures can show the parent of a compound that is named as a salt. Where two headings read alike, the source gives them in different places.

Legend:
P. falciparum W2 = assay: Testing of compounds against P. falciparum strain W2; format: cell-based; settings: Plasmodium falciparum
Source text: (§1) Parasitic Lethality: The geldanamycin derivatives were subjected to further testing for lethality to the P. falciparum parasite itself. IC50 values were then obtained as illustrated in Table 1 in Example 3. Samples of the literature compound 17-N-allyl-17-demethoxygeldanamycin was synthesized and tested for killing of parasites. Preferably the drugs are selective for parasitic hsp90 homologs over human hsp90 and have minimal human toxicity. Geldanamycin derivatives of this type have potential for being novel drugs in the treatment of parasitic diseases. The medical community will be able to use these new anti-infective medications alone or in combination with other anti-infective medications. For example, the geldanamycin derivatives of the present invention can be used in combination with chloroquine, since geldanamycin and chloroquine are synergistic inhibitors of Plasmodium falciparum growth as described in Kumar et al. Malaria Journal 2:30 (2003).
(§2) Both parasite strains are chloroquine and pyrimethamine resistant and TM91C235 is also mefloquine resistant.

P. falciparum TM91C235 = assay: Testing of compounds against P. falciparum strain TM91C235; format: cell-based; settings: Plasmodium falciparum
Source text: as §1, §2

[1] = target strain W2 (chloroquine and pyrimethamine resistant), read-out: IC50
[2] = target strain W2 (chloroquine and pyrimethamine resistant), read-out: IC90
[3] = target strain TM91C235 (chloroquine, pyrimethamine and mefloquine resistant), read-out: IC50
[4] = target strain TM91C235 (chloroquine, pyrimethamine and mefloquine resistant), read-out: IC90

| SMILES | IC50 (P. falciparum W2; W2) | IC90 (P. falciparum W2; W2) | IC50 (P. falciparum TM91C235) | IC90 (P. falciparum TM91C235) | IC50 (P. falciparum W2; [1]) | IC90 (P. falciparum W2; [2]) | IC50 (P. falciparum TM91C235; [3]) | IC90 (P. falciparum TM91C235; [4]) |
| --- | --- | --- | --- | --- | --- | --- | --- | --- |
| CCN(CC)CCCC(C)Nc1ccnc2cc(Cl)ccc12 (stereo not drawn) [Chloroquine, reference compound] | 0.0297 µg/mL | 0.0378 µg/mL | 0.125 µg/mL | 0.16 µg/mL |  |  |  |  |
| CO[C@H]1/C=C\C=C(/C)C(=O)NC2=CC(=O)C(N3CCC3)=C(C[C@@H](C)C[C@H](OC)[C@H](OC(=O)CCCN)[C@@H](C)/C=C(\C)[C@@H]1OC(N)=O)C2=O [Compound A, 11-O-(4-Aminobutyryl)-17-(1-azetidinyl)-17-demethoxygeldanamycin trifluoroacetate] |  |  |  |  | 0.65 µg/mL | 1.79 µg/mL | 1.03 µg/mL | 2.53 µg/mL |
| CCCC(=O)O[C@H]1/C(C)=C/[C@H](C)[C@@H](O)[C@@H](OC)C[C@H](C)CC2=C(N3CCC3)C(=O)C=C(NC(=O)/C(C)=C/C=C\[C@@H]1OC)C2=O [Compound B, 17-(1-Azetidinyl)-7-butyryl-7-decarbamyl-17-demethoxygeldanamycin] |  |  |  |  | 0.786 µg/mL | 2.73 µg/mL | 2.71 µg/mL | 4.02 µg/mL |
| CO[C@H]1/C=C\C=C(/C)C(=O)NC2=CC(=O)C(N3CCC3)=C(C[C@@H](C)C[C@H](OC)[C@H](O)[C@@H](C)/C=C(\C)[C@@H]1OC(=O)C1CC1)C2=O [Compound C, 17-(1-Azetidinyl)-7-(cyclopropanyl)carbonyl-7-decarbamyl-17-demethoxygeldanamycin] |  |  |  |  | 0.875 µg/mL | 3.06 µg/mL | 2.64 µg/mL | 3.95 µg/mL |
| CO[C@H]1/C=C\C=C(/C)C(=O)NC2=CC(=O)C(N3CCC3)=C(C[C@@H](C)C[C@H](OC)[C@H](O)[C@@H](C)/C=C(\C)[C@@H]1O)C2=O [Compound D, 17-(1-Azetidinyl)-7-decarbamyl-17-demethoxygeldanamycin] |  |  |  |  | 0.958 µg/mL | 6.18 µg/mL | 4.04 µg/mL | 8.41 µg/mL |
| CO[C@H]1/C=C\C=C(/C)C(=O)NC2=CC(=O)C(N3CCC3)=C(C[C@@H](C)C[C@H](OC)[C@H](O)[C@@H](C)/C=C(\C)[C@@H]1OC(=O)c1ccccc1)C2=O [Compound E, 17-(1-Azetidinyl)-7-benzoyl-7-decarbamyl-17-demethoxygeldanamycin] | 1.26 µg/mL | 5.43 µg/mL | 4.29 µg/mL | 6.07 µg/mL |  |  |  |  |
| CCC(=O)O[C@H]1/C(C)=C/[C@H](C)[C@@H](O)[C@@H](OC)C[C@H](C)CC2=C(N3CCC3)C(=O)C=C(NC(=O)/C(C)=C/C=C\[C@@H]1OC)C2=O [Compound F, 17-(1-Azetidinyl)-7-decarbamyl-17-demethoxy-7-propionylgeldanamycin] |  |  |  |  | 0.909 µg/mL | 3.74 µg/mL | 3.03 µg/mL | 5.54 µg/mL |
| CO[C@H]1/C=C\C=C(/C)C(=O)NC2=CC(=O)C(N3CCC3)=C(C[C@@H](C)C[C@H](OC)[C@H](O)[C@@H](C)/C=C(\C)[C@@H]1OC(N)=O)C2=O [Compound G, 17-(1-Azetidinyl)-17-demethoxygeldanamycin] |  |  |  |  | 0.0683 µg/mL | 0.208 µg/mL | 0.169 µg/mL | 0.346 µg/mL |
| OC(c1cc(C(F)(F)F)nc2c(C(F)(F)F)cccc12)C1CCCCN1 (stereo not drawn) [Mefloquine, reference compound] |  |  |  |  | 0.00163 µg/mL | 0.00409 µg/mL | 0.0138 µg/mL | 0.0291 µg/mL |
